Measured values published in US20260166016A1, “GPR139 RECEPTOR AGONIST, PREPARATION METHOD THEREFOR, AND APPLICATION THEREOF” (NEUBO APPTECH CO., LTD., priority 2022, published 2026).

What was measured:
acutely restrained mice = assay: Acute restraint mouse stress model, plasma corticosterone (ELISA); assay type: in vivo; details: male C57BL/6J mice, gavage 1, 5, 25 mg/kg, 30 minutes after administration and 3 hours of acute restraint, dose-dependent, FIG. 1
Procedure: Mouse: Male C57BL/6J; 8 weeks old; Weight: 20-25 g; Quantity: 40 pieces
Group 1, acute restraint+placebo group, 10 mice; the mice were divided into 2 cages, 5 mice per cage. On the morning of the day of the experiment, the mice in this group were subjected to acute restraint, during which they were fasted and deprived of water.
Group 2, acute restraint+low-dose of compound NRB181 group (1 mg/kg), 10 mice; the mice were divided into 2 cages, 5 mice per cage. On the morning of the day of the experiment, the mice in this group were subjected to acute restraint, during which they were fasted and deprived of water.
Group 3, acute restraint+moderate-dose of compound NRB181 group (5 mg/kg), 10 mice; the mice were divided into 2 cages, 5 mice per cage. On the morning of the day of the experiment, the mice in this group were subjected to acute restraint, during which they were fasted and deprived of water.
Group 4, acute restraint+high-dose of compound NRB181 group (25 mg/kg), 10 mice; the mice were divided into 2 cages, 5 mice per cage. On the morning of the day of the experiment, the mice in this group were subjected to acute restraint, during which they were fasted and deprived of water.
18.3.1 On the day before the experiment, a placebo was prepared: 1 mL of 100% DMSO and 9 mL of formula x solution was added. […]

mice in Forced Swim Test = assay: Mouse Forced Swim Test; assay type: in vivo; details: male CD1 (ICR) mice; i.p. 2.5 mg/mL solution at 0.1 mL/10 g; test 10 minutes after injection; FIG. 3
Procedure: Mouse strain: Male Crl: CD1 (ICR) mice; Weight: 35-40 g; Quantity: 16 pieces
Group 1, placebo group: 8 mice, 4 mice per cage;
Group 2, NRB181 group: 8 mice, 4 mice per cage.
20.3.1 Preparation of placebo before experiment: 10% DMSO+saline.
20.3.2 Preparation of compound NRB181 before experiment: 10 mg of NRB181 was weighed and added to 4 mL of placebo, mixed well.
20.3.4 On the morning of the experimental day, all mice were weighed and then evenly divided into each group based on their weight, with 8 mice per group, for a total of 16 mice.
20.3.5 The mice were transferred to the behavioral laboratory and allowed to adapt for 3 hours.
20.3.6 Drug injection: mice of Group 1 received intraperitoneal injection of placebo at a dose of 0.1 mL/10 g; after Forced Swim Test of the mice in Group 1, mice in Group 2 were intraperitoneally injected with compound NRB181 at a dose of 0.1 mL/10 g.
Mice of Group 1 underwent Forced Swim Test in sequence 10 minutes after injection. The mice were placed in a glass jar (diameter 10 cm, height 25 cm; water depth 15 cm, water temperature 23° C.) and swam for 6 minutes. The first 2 minutes were the adaptation period, and the last 4 minutes were the experimental period; The software records the immobility time, swimming time, and climbing time of mice within 4 minutes. […]

SMILES: C[C@H](NC(=O)CNC(=O)c1cc(Cl)ccn1)c1c(F)cccc1F [NRB181]
- expression level of corticosterone (acutely restrained mice): significantly reduced
- time of despair (immobility time) in Forced Swim Test (mice in Forced Swim Test): significantly reduce
